{
  "source": "patent US20230331707A1",
  "about": "“PROGRAMMED CELL NECROSIS INHIBITOR, PREPARATION METHOD THEREFOR, AND USE THEREOF” (Shanghai Institute of Organic Chemistry, Chinese Academy of …, priority 2020, published 2023)",
  "key": {"[1]": {"test_system": "MEFs cells expressing RIPK1 S161E mutant", "test": "TSZ-induced programmed necrosis in MEFs cells expressing RIPK1 S161E mutant", "type": "cell-based, mouse", "conditions": "600 nM", "source_text": "(§1) The adopted biological test protocol was: the effect of compounds on programmed necrosis in MEFs cells (mouse embryonic fibroblasts) with RIPK1 S161E mutation.\n(§2) In order to verify the inhibitory effect of the compound of the present invention on the highly activated RIPK1 kinase at the cellular level, MEFs cells stably expressing RIPK1 S161E (simulating the activation state of RIPK1 after phosphorylation) were selected, TNFα-SM164-zVAD (Caspase inhibitor for inhibiting apoptosis) (TSZ) was used in combination to induce programmed cell necrosis, and cell viability was calculated by detecting chemiluminescence values, thereby obtaining the biological activity of the compound in inhibiting programmed necrosis.\n(§3) Methods: MEFs cells replenished by RIPK1: WT-RIPK1, S161A-RIPK1 and S161E-RIPK1 were replenished in RIPK1 stable knockout cells respectively. After stable expression and being cultured to logarithmic growth phase, the cells were collected, and centrifuged at 1000 rpm for 5 min. The supernatant was discarded. Cell concentration was adjusted to 5×10^4/mL, and cells were inoculated into 384-well plates with 40 μL per well. Cell culture medium diluted SM164 (100 nM), zVAD (50 μM) and compound, each […], were added to the corresponding wells. After pretreatment at 37° C. for 1 h, 5 μL of cell culture medium diluted TNF (50 ng/mL) was added to each well in the stimulated group and 5 μL of culture medium was added to the control group. […] The unstimulated DMSO control wells (Ctrl) were taken as 100% cell viability. EC50 values of the compounds were calculated using Prism Graphpad statistical software."}, "RIPK1(1-330) protein": {"molecular_target": "T1, RIPK1(1-330) protein (Homo sapiens, UniProt Q13546)", "T1 construct": "testing the effect of compound QY-10-40 on the kinase activity of RIPK1(1-330) protein; made in house", "T1 sequence (Q13546 1-330)": "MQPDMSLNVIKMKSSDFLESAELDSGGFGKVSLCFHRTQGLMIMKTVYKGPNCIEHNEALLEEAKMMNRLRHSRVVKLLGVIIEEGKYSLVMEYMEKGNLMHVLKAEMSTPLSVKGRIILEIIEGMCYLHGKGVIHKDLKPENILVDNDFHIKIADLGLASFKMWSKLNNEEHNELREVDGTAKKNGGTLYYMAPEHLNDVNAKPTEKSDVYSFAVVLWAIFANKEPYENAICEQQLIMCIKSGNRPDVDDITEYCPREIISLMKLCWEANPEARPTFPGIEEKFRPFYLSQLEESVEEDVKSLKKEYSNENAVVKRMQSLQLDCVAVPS", "test": "RIPK1(1-330) kinase activity (ADP-Glo)", "type": "biochemical", "conditions": "read-out: effective semi-inhibitory concentration on RIPK1 kinase", "protocol": "Methods: RIPK1 (1-330) protein with a final concentration of 2 μM and ATP (IX kinase buffer) with a corresponding concentration, final concentration of 5 μL, were added to the 384-well plate, respectively. Each group at least set up triplicate wells and reacted for 2 h at 37° C. 5 μL ADP-Glo reagent was added, which was used to stop kinase reaction and remove residual ATP in reaction system. The plates was placed at room temperature for 40 min. 10 μL kinase detection reagent was added, which was used to convert ADP into ATP and introduce luciferase and luciferin for ATP detection into the system. The reaction was carried out at room temperature for 1 h. 7500 Fast Real-Time PCR System was used to detect luminescence. The IC50 of the compounds inhibiting the kinase reaction was calculated using Prism Graphpad statistical software."}, "[2]": {"test_system": "MEFs cells expressing RIPK1 WT", "test": "TSZ-induced programmed necrosis in MEFs cells expressing RIPK1 WT", "type": "cell-based, mouse", "conditions": "600 nM", "source_text": "as §1, §2, §3"}, "[3]": {"test": "Pharmacokinetic properties in mice", "type": "in vivo", "method": "The adopted biological test protocol was: drug metabolism test of the compound on the mouse in vivo.\nIn order to verify the […], a representative compound QY-10-40 was selected and the pharmacokinetic properties of the compound in mice (n=3) were tested using single administration by gavage (PO, 10 mg/kg) or intravenous injection (IV, 1 mg/kg)."}, "FADD−/− Jurkat cells": {"test_system": "FADD−/− Jurkat cells", "test": "Inhibition of TNF-induced programmed necrosis of FADD deficient Jurkat cells (Cell Titer-Glo viability)", "type": "cell-based", "conditions": "at 1000-fold effective inhibitory concentration (1 μM); FADD-deficient Jurkat cells or L929 cells"}, "[4]": {"test_system": "TNFα-induced systemic inflammatory response syndrome", "test": "TNFα-induced systemic inflammatory response syndrome in mice", "type": "in vivo", "conditions": "gavage 2 mg/kg, 20 min before TNFα tail vein injection", "method": "The adopted biological test scheme was: Tail vein injection of tumor necrosis factor TNFα would lead to the occurrence of systemic inflammatory response syndrome in mice, resulting in decreased body temperature and death. The effect of representative compound QY-10-40 on TNFα-induced systemic inflammatory response syndrome was tested, and the change in body temperature and death of mice were monitored.\nSystemic inflammatory response syndrome, also known as inflammatory storm, refers to a systemic non-specific inflammatory response caused by infectious or non-infectious injuries such as severe infection, multiple trauma, burns, ischemia reperfusion, and acute pancreatitis. Under this condition, large amounts of inflammatory factors will release, in severe cases organism will loss the control of inflammatory response, resulting in multi-organ failure and even death.\nMethods: The compounds to be tested were dissolved in 0.5% carboxymethyl cellulose according to the required concentration one day in advance, and sonicated overnight. Each mouse was gavaged with 200 μl. 20 min later, […] was injected through the tail vein. Body temperature changes of mice were monitored by infrared thermometer after injection. The effects of the compounds were calculated using Prism Graphpad statistical software."}, "[5]": {"test": "Liver microsomal stability test, mouse", "type": "in vitro ADME", "source_text": "The adopted biological test protocol was: testing the half-life of the compound in human- or mouse-derived liver microsomes.\nLiver microsomes contain many enzymes involved in drug metabolism, especially cytochrome P-450, and therefore it is one of the major tissues involved in drug metabolism in living organisms. There are some correlations between the stability of the compound in liver microsomes and the pharmacogenetic stability thereof in vivo. Therefore, the relative stability of compounds in vivo can be roughly predicted by testing the half-life of different compounds in human- or mouse-derived liver microsomes. The specific methods were as follows:\nMethods: 0.75 μL of 0.5 mM samples (compounds to be tested and control verapamil), 9.38 μL of 20 mg/mL liver microsomes (Human and Mouse) were taken and added to 239.88 μL PBS (on ice), and divided into 30 μL/tube samples respectively. The samples were incubated at 37° C. in a constant temperature water bath for 5 min, and then all samples were taken out. At zero-time, control group was added with 90 μL of ice acetonitrile first, and then added with 15 μL of 3 mM NADPH solution sequentially, and incubated at 37° C. in a constant temperature water bath. The corresponding samples were taken out after 5 min, 10 min, 20 min, 30 min and 60 min, respectively, and quenched by adding 90 μL of ice acetonitrile. All samples were centrifuged at 10000 rpm for 10 min, and the supernatants were taken and placed in a liquid phase vial waiting for LC-MS analysis."}},
  "data": [
    {"smiles": "Cn1ncc(C(=O)NCc2ccc(-n3cnc4c(N)ncnc43)cc2)c1Cc1ccccc1", "note": "[QY-10-40]", "values": [
      {"measurement": "inhibition of programmed necrosis", "setting": "[1]", "result": "can significantly inhibit occurrence of programmed necrosis"},
      {"measurement": "IC50", "setting": "RIPK1(1-330) protein", "result": 219, "unit": "nM"},
      {"measurement": "inhibition of programmed necrosis", "setting": "[2]", "result": "can effectively inhibit the occurrence of programmed necrosis"},
      {"measurement": "bioavailability (F) (in words)", "setting": "[3]; PO 10 mg/kg, IV 1 mg/kg", "result": "better bioavailability"},
      {"measurement": "half-life (T1/2) (in words)", "setting": "[3]; PO 10 mg/kg, IV 1 mg/kg", "result": "better"},
      {"measurement": "blood concentrations for most of the time within 24 h", "setting": "[3]; gavage 10 mg/kg, single dose, 10 nM = effective inhibitory concentration", "result": "> 10", "unit": "nM"},
      {"measurement": "time to peak (in words)", "setting": "[3]; single dose (PO 10 mg/kg or IV 1 mg/kg)", "result": "rapidly reach the peak"},
      {"measurement": "cytotoxicity", "setting": "FADD−/− Jurkat cells", "result": "does not exhibit any cytotoxicity"},
      {"measurement": "effect on TNFα-induced hypothermia, inflammation response and death", "setting": "[4]", "result": "effectively resists against TNFα-induced hypothermia, inflammation response and death"},
      {"measurement": "stability in liver microsomes (in words)", "setting": "[5]; mouse derived liver microsomes", "result": "good stability"},
      {"measurement": "T1/2 (min) Mouse", "setting": "[5]; mouse liver microsomes, NADPH, 37° C.", "result": 69.3, "unit": "min"}
    ]}
  ]
}
